Measured values taken from ChEMBL document CHEMBL1201862, “PubChem BioAssay data set” (2004).
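Briefly, cells in 96-well plates were exposed to five compound concentrations for 48 h, and endpoints were estimated by linear interpolation. GI50 marks 50% less growth.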 Calls of active or inactive are those of the source. Rule as the data show it: active = GI50 up to about 1.1 µM and inactive = higher.

Key:
Test in all cases: NCI anticancer screen, dose series, 48 h
Malme-3M = system: Malme-3M
SNB-19 = system: SNB-19
SK-MEL-5 = system: SK-MEL-5
SR = system: SR
BT-549 = system: BT-549
MOLT-4 = system: MOLT-4
OVCAR-3 = system: OVCAR-3
OVCAR-5 = system: OVCAR-5
IGROV-1 = system: IGROV-1
EKVX = system: EKVX
OVCAR-8 = system: OVCAR-8
A498 = system: A498
786-0 = system: 786-0
NCI-H460 = system: NCI-H460
CCRF-CEM = system: CCRF-CEM
HCT-116 = system: HCT-116
RPMI-8226 = system: RPMI-8226
MDA-MB-231 = system: MDA-MB-231
SNB-75 = system: SNB-75
TK-10 = system: TK-10
K562 = system: K562
SF-539 = system: SF-539
CAKI-1 = system: CAKI-1
PC-3 = system: PC-3
RXF 393 = system: RXF 393
HCT-15 = system: HCT-15
U-251 = system: U-251
MDA-MB-435 = system: MDA-MB-435
ACHN = system: ACHN
UACC-257 = system: UACC-257
OVCAR-4 = system: OVCAR-4
HOP-92 = system: HOP-92
A549 = system: A549
HL-60 = system: HL-60
NCI-H522 = system: NCI-H522
MCF7 = system: MCF7
UO-31 = system: UO-31
HCC 2998 = system: HCC 2998
SN12C = system: SN12C
LOX IMVI = system: LOX IMVI
MDA-N = system: MDA-N
COLO 205 = system: COLO 205
SK-MEL-28 = system: SK-MEL-28
NCI-H23 = system: NCI-H23
DU-145 = system: DU-145
NCI/ADR-RES = system: NCI/ADR-RES
SF-295 = system: SF-295
KM12 = system: KM12
Hs-578T = system: Hs-578T
NCI-H226 = system: NCI-H226
HT-29 = system: HT-29
HOP-62 = system: HOP-62
SF-268 = system: SF-268
SW-620 = system: SW-620
SK-MEL-2 = system: SK-MEL-2
T47D = system: T47D
M14 = system: M14
SK-OV-3 = system: SK-OV-3
UACC-62 = system: UACC-62

Measured: GI50

Nc1nc(Cl)c(/C=N\O)c(NCC2(CO)CC(=O)C2)n1
inactive: Malme-3M 33.7 µM | SNB-19 > 100 µM | SK-MEL-5 76.7 µM | SR 3.85 µM | BT-549 51.5 µM | MOLT-4 31.8 µM | OVCAR-3 60.1 µM | OVCAR-5 85.3 µM | IGROV-1 23.2 µM | EKVX > 100 µM | OVCAR-8 > 100 µM | A498 34.4 µM | 786-0 49.1 µM | NCI-H460 67.3 µM | CCRF-CEM 41.7 µM | HCT-116 88.7 µM | RPMI-8226 3.33 µM | MDA-MB-231 80.7 µM | SNB-75 31.1 µM | TK-10 > 100 µM | K562 54.2 µM | SF-539 78.2 µM | CAKI-1 75.3 µM | PC-3 80.2 µM | RXF 393 39.4 µM | U-251 > 100 µM | MDA-MB-435 95.1 µM | ACHN 62.1 µM | UACC-257 58.3 µM | OVCAR-4 84.3 µM | HOP-92 40.8 µM | A549 30.8 µM | HL-60 5.33 µM | NCI-H522 68.7 µM | MCF7 52.5 µM | UO-31 47.4 µM | HCC 2998 > 100 µM | SN12C > 100 µM | LOX IMVI 45.8 µM | MDA-N 96.4 µM | COLO 205 > 100 µM | SK-MEL-28 > 100 µM | NCI-H23 36.4 µM | DU-145 77.4 µM | NCI/ADR-RES > 100 µM | SF-295 56 µM | KM12 24.5 µM | Hs-578T 18.7 µM | NCI-H226 > 100 µM | HT-29 80 µM | HOP-62 76.9 µM | SF-268 > 100 µM | SW-620 89.1 µM
> 100 µM: HCT-15

COc1ccc(C23OCC(Cc4cc(OC)c(OC)cc42)C3CO)cc1OC (stereo not drawn)
inactive: Malme-3M > 100 µM | SNB-19 > 100 µM | SK-MEL-5 > 100 µM | SR 29.8 µM | BT-549 > 100 µM | MOLT-4 > 100 µM | SK-MEL-2 > 100 µM | OVCAR-3 > 100 µM | OVCAR-5 > 100 µM | EKVX > 100 µM | A498 > 100 µM | 786-0 > 100 µM | NCI-H460 > 100 µM | HCT-116 > 100 µM | RPMI-8226 > 100 µM | MDA-MB-231 > 100 µM | SNB-75 > 100 µM | TK-10 > 100 µM | K562 > 100 µM | SF-539 > 100 µM | CAKI-1 > 100 µM | PC-3 > 100 µM | RXF 393 > 100 µM | U-251 > 100 µM | MDA-MB-435 > 100 µM | T47D > 100 µM | M14 > 100 µM | ACHN > 100 µM | OVCAR-4 > 100 µM | A549 > 100 µM | HL-60 > 100 µM | NCI-H522 > 100 µM | MCF7 > 100 µM | UO-31 > 100 µM | HCC 2998 > 100 µM | SK-OV-3 > 100 µM | LOX IMVI > 100 µM | COLO 205 > 100 µM | SK-MEL-28 > 100 µM | NCI-H23 > 100 µM | DU-145 > 100 µM | NCI/ADR-RES > 100 µM | SF-295 > 100 µM | KM12 > 100 µM | UACC-62 > 100 µM | NCI-H226 > 100 µM | HOP-62 > 100 µM | SW-620 > 100 µM
> 100 µM: HCT-15
